The values below are quoted from earlier work in PMC12018205, “Mutant protein chemical rescue: From mechanisms to therapeutics” (The Journal of Biological Chemistry, 2025).

For series [1], the system named is Q227L Gα (Gsα subunit). The settings on record: substrate-assisted catalysis.
The test system of series [2] is S-mandelate dehydrogenase R277G mutant. Also on record: method as in PMID 10955993.
The subject of series [3] is R359C GS (glutamine synthetase). Also on record: method as in PMID 7912599. Conditions: for rescue of kcat / reactivation of R359C mutant: covalent modification of Cys.
Series [4] deals with aspartate aminotransferase K258C mutant. Also noted: method as in PMID 1907854. The settings on record: aminoethylation of K258C.
The test system of series [5] is galactocerebrosidase. Also noted: method as in PMID 24913062. The settings on record: Krabbe disease.
Series [6] has as its system mutant p53 tumors. Also noted: method as in PMID 10617466. Conditions: mouse xenograft studies.
For series [7], the system named is mutant α-galactosidase A (GalA). Also on record: method as in PMID 9883849. The settings on record: prevents aggregation in the endoplasmic reticulum.
For series [8], the system named is clostridial GDH D156S mutant.
Series [9] has as its system rat pancreatic carboxypeptidase A R127A mutant. Also on record: method as in PMID 1304353. Conditions: up.
In series [10] the test system is rat pancreatic carboxypeptidase A R127M mutant. Also on record: method as in PMID 1304353.
The test system of series [11] is trehalose phosphorylase R507A mutant. Also noted: method as in PMID 18205830. Conditions: up.
In series [12] the test system is ornithine transcarbamylase R57G variant.
The test system of series [13] is AS B (asparagine synthetase B) Arg325 to Ala mutant. Also on record: method as in PMID 9139684. The settings on record: 50 mM rescue agent.
The test system of series [14] is mutant forms of CFTR. Also on record: method as in PMID 19846789. Conditions: some mutant forms; epithelial cell membranes.
The subject of series [15] is N370S-mutant β-glucosidase. Also noted: method as in PMID 12434014.
Series [16] concerns HDAC8. Also noted: method as in PMID 26463496. The settings on record: multiple forms.
Series [17] has as its system pyruvate kinase C9S/C268S/K221C triple mutant. Conditions: aminoethylation of K221C.
For series [18], the system named is D189S trypsin.
Series [19] relates to Lys80-mutant leucine dehydrogenase. The settings on record: One M; from 1.5% unrescued.
Series [20] deals with E361G-mutant β-galactosidase. The settings on record: E361G mutant rescued.
Series [21] deals with Y51A-mutant xylose reductase. Conditions: NAD+-dependent oxidation of xylitol.
For series [22], the system named is rationally designed proteins and temperature-sensitive library mutants in yeast.
Series [23] has as its system I278T CBS. Also on record: method as in PMID 17540596.
Series [24] concerns tripeptidyl peptidase I. Also on record: method as in PMID 20340139. Conditions: one form.
The subject of series [25] is Paenibacillus sp. dextranase glutamate mutants. Conditions: high concentration of 2.4 M.
For series [26], the system named is Csk, Src, and Abl kinases Arg to Ala mutants.
In series [27] the test system is β-class carbonic anhydrase Asp34 to Ala mutant. Also noted: method as in PMID 12107142. The settings on record: without affecting kcat/KM.
Series [28] relates to subtilisin H64A mutant. Also on record: method as in PMID 2059622. Conditions: much lesser degree than His-containing substrate.
In series [29] the test system is SpyCas9 H840A and H840G mutants. Also noted: method as in PMID 33428390. Conditions: 100 mM; both H840 mutants.
Series [30] relates to H122G NDPK. Also noted: method as in PMID 10200157.
Series [31] concerns R388A v-Src in SYF MEF cells. Conditions: live cells, FRET-based cell sensor.
In series [32] the test system is cytomegalovirus protease assemblin His to Gly mutant. Also noted: method as in PMID 16036911. The settings on record: in vitro and in mammalian cells.
The test system of series [33] is β-glycosidase (β-gly) W33G mutant. Also on record: method as in PMID 22655749.
The test system of series [34] is Y14G-mutant ketosteroid isomerase. Conditions: 2 mM.
Series [35] concerns Y319A TbtD. The settings on record: 10 mM.
Series [36] has as its system mutant PAH (phenylalanine hydroxylase). The settings on record: PAH stabilization and enhancement of enzyme kinetics.

Consider “3,4-diamino-benzophenone phosphonoamidate-GTP [DABP-GTP]”, for which the “GTPase activity rescue with GTP analog as substrate” value in series [1] was “nearly WT activity”.

Take `CN(C)C(=N)N` [1,1-dimethylguanidine]: the “effectiveness as rescue agent” value in series [2] is “not effective”.

Consider `Cn1ccnc1` [1-methylimidazole], for which, in series [2], the “effectiveness as rescue agent” value is reported as “not effective”.

For `N=C(N)CCl` [2-CA, 2-chloroacetamidine], in [3] (R359C GS after covalent modification of Cys), the “kcat restored, % of the value of the WT enzyme” value was 70%.

As to `NCCBr` [2-bromoethylamine], in [4], the “enzymatic activity restored, % of WT aspartate aminotransferase” value is 7%.

For `NCCCBr` [3-bromopropylamine], the “rescue of kcat / reactivation of R359C mutant” value in series [3] is recorded as “could not reactivate”.

`O=c1c(-c2ccc(O)c(O)c2)coc2cc(O)ccc12` [3′,4′,7-trihydroxyisoflavone]: the rescue of galactocerebrosidase result in series [5] is reported as “rescued”.

For `COc1ccc(/C=C/c2nc(NCCCN(C)C)c3ccccc3n2)cc1` [CP-31398], the effect on tumors entry in [6] is listed as “shrunk tumors”.

As for `OC[C@H]1NC[C@H](O)[C@@H](O)[C@H]1O` [DGJ, deoxygalactonojirimycin], in [7], the “effect of binding on mutant GalA” value is reported as “stabilize mutant GalA”.

For `N=C(N)CSSCC(=N)N` [DTBA, 2,2′-dithiobis(acetamidine)], the “rescue of kcat / reactivation of R359C mutant” value in series [3] is recorded as “hardly affected”.

Turning to `F` [Fluoride, fluoride], in series [8], the “maximum extent of rescue, forward reaction, increase over baseline” value was 1000 fold and the “maximum extent of rescue, reverse reaction, increase over baseline” value was 4 fold. Besides, the EC50 in [8] (read-out: Kr, reverse reaction, reductive amination) was 40 mM.

Consider `N=C(N)N` [Guanidine], for which the “increase in kcat of the R127A mutant” value in [9] is recorded as “up to 100 fold”. In addition, in series [10], the “rescue of the R127M mutant” value is “rescued”. In addition, the “enhancement of enzymatic activity” value in [11] was “up to 50 fold”.

In the case of `Cl.N=C(N)N` [Guanidinium hydrochloride], in series [12] (R57G variant), the “rescued kcat, within % of the WT enzyme” value is at most 10% and the stimulation of kcat is 2000 fold. Further, the EC50 in series [12] (R57G variant, read-out: half-maximal rescue concentration (Kr)) was 22 mM. Moreover, in series [13], the “specific activity restored, % of the WT enzyme” value is about 15%.

For the compound `CC(C)(C)c1cc(C(C)(C)C)c(NC(=O)c2c[nH]c3ccccc3c2=O)cc1O` [Ivacaftor], in [14], the “effect on mutant CFTR” value is “enhances their presence and transport function”.

Turning to `CCCCCCCCCN1C[C@H](O)[C@@H](O)[C@H](O)[C@H]1CO` [N-(n-nonyl)deoxynojirimycin], in [15], the “effect on mutant β-glucosidase stability and trafficking to the lysosome” value is on record as “shows promise in promoting the stability”.

`O=C(NC(=S)Nc1ccccc1)c1ccccc1` [N-(phenylcarbamothioyl)-benzamide]: in series [16], the “rescue of HDAC8 mutants” value is given as “partially or fully rescued”.

Take `O=C(NCCI)C(F)(F)F` [N-[2-iodoethyl]trifluoroacetamide]: in series [17], the “activity rescued, % of the WT pyruvate kinase activity” value is 4.5%.

Take `CC(=O)O` [acetate]: the “enhancement of D189S trypsin activity” value in series [18] is “could enhance the activity”. Further, the “rescue for substrates bearing Arg at P1 versus Lys” value in series [18] (D189S trypsin) is reported as 10 fold.

Take `N` [ammonia]: the “deamination activity restored, % of WT leucine dehydrogenase” value in series [19] is given as 20%.

In the case of `N=C(N)NCCC[C@H](N)C(=O)O` [arginine], the “restoration of R57G variant activity” value in [12] is “not”.

Take `[N-]=[N+]=[N-]` [azide]: the “enhancement in transglycosylation activity over the WT enzyme” value in [20] is given as 177 fold.

For the compound `Br` [bromide ion], the “rescue of Y51A-mutant xylose reductase” value in series [21] was “partially rescued”.

Turning to `C[S+](C)[O-]` [dimethyl sulfoxide], in series [22], the “extent of rescue in vivo” value was “weak”. In addition, the “rescue of I278T CBS by chemical chaperones” value in series [23] is reported as “partially rescued”. Also, the “rescue of tripeptidyl peptidase I” value in [24] is “partially rescued”.

With `CCNC(=N)N` [ethylguanidine], the “increase in kcat of the R127A mutant” value in [9] is “up to 100 fold”.

`O=CO` [formate]: in [25], the “rescue of glutamate mutants” value was “effective”. Also, the “enhancement in transglycosylation activity over the WT enzyme” value in [20] is 177 fold.

For the compound `N=C(N)N` [guanidinium], in series [22], the “extent of rescue in vivo” value is reported as “weak”.

Regarding `c1c[nH]cn1` [imidazole], the pKa result is “approximately 7”. In series [26], the “rescue of activity of Arg to Ala mutants” value was over 100 fold. Moreover, in series [26] (read-out: EC50 of tyrosine kinase rescue), the EC50 is about 5 mM. Also, the “rescue of kcat defect” value in series [27] was “rescued this defect in kcat”. Besides, the “restoration of catalytic activity” value in series [28] is recorded as “partially restored”. For the same compound, in series [29], the “rescue of in vitro nuclease activity” value was “substantially rescued”. In [30] (ATP), the “rescue of kcat/KM,ATP” value is on record as 40 fold and the “rescued kcat/KM,ATP, fold below that of the WT enzyme” value is listed as 50 fold. In [30] (ATPγS), the “kcat/KM,ATPγS, fold higher than the unrescued condition” value was 100 fold and the “rescued kcat/KM,ATPγS, fold below WT” value was 2 fold. The “time to observed tyrosine phosphorylation after treatment” value in [31] is on record as at most 1 min. In addition, the “complementation of lost proteolytic activity” value in series [32] is recorded as “complemented efficiently”.

Turning to `c1ccc2[nH]ccc2c1` [indole], the “rescue of β-gly” value in [33] is recorded as “fully rescued”.

As to `CN=C(N)N` [methylguanidine], in series [9], the “increase in kcat of the R127A mutant” value is listed as “up to 100 fold”. Also, in series [2], the “rescued KM, within fold of the WT value” is listed as at most 30 fold and the “rescued kcat, within fold of the WT value” was at most 1.5 fold. The EC50 in [2] (read-out: half-maximal rescue (Kr)) was about 10 mM.

As for `Oc1ccccc1` [phenol], in series [34], the “rescue of activity over baseline” value is given as “about 10 fold” and the “rescued enzyme activity, % of WT activity” value is given as “below 1%”. The “effect on pyridine product formation” value in series [35] is given as “substantial increase in pyridine formation”.

On to `c1ccncc1` [pyridine], for which, in [12], the “restoration of R57G variant activity” value was “not”.

Turning to `OC[C@@H](O)[C@@H](O)[C@H](O)[C@@H](O)CO` [sorbitol], the “rescue of I278T CBS by chemical chaperones” value in [23] is given as “partially rescued”.

Take `C[C@H](O)[C@H](O)[C@H]1CNc2nc(N)[nH]c(=O)c2N1` [tetrahydrobiopterin]: the “rescue of mutant PAH by excess cofactor” value in series [36] is on record as “rescue mutant forms of PAH”.

Regarding `C[N+](C)(C)[O-]` [trimethylamine-N-oxide], in [22], the “extent of rescue in vivo” value is “weak”.

For the compound `CN1[C@@H](CC(=O)c2ccccc2)CCC[C@H]1C[C@H](O)c1ccccc1` [α-lobeline], the rescue of galactocerebrosidase result in [5] is “rescued”.
